System: 406 cancer cell lines, 73 blood tumor cell lines and 333 solid tumor cell lines
Assay: OmniScreen drug efficacy on cancer cell lines, fitted area under curve (AUC) of dose-response
Type: cell-based
Set-up: AUCs: unit not given beside the values
Protocol: Predictive biomarkers for genes indicating responsiveness to a therapeutic compound can be determined using a cell-based screening technique, such as that offered under the name OmniScreen™ (Crown Biosciences).
In one experimental study, predictive biomarkers were determined for Compound A197 efficacy on 406 cancer cell lines, 73 blood tumor cell lines and 333 solid tumor cell lines. Genomic data for the cell lines was downloaded from the Cancer Cell Line Encyclopedia Project (CCLE) website. Driver mutations were predicted on the Cancer Genome Interpreter Database; only driver mutations were used in the mutation related analysis.
Dose-response curves were fitted by the 4-parameter model:
in which top and bottom are the two asymptotes of the sigmoidal curve, EC50 is the relative IC50, and concentration x is in log−10 scale. To accommodate experimental errors, Bottom was allowed to go down to −20%, and Top was allowed to go up to 120%. The fitting error of a model is measured by
σECS0 is the standard error of EC50. In general, such fitting error should be less than 40% for a model to be considered acceptable. The fitted area under curve (AUC) is calculated by
where a=log(3, 10) and b=log(30000,10).

## Cc1nn(-c2nc(-c3ccc(C(F)(F)F)cc3)c(SC(C)C)s2)c(C(=O)O)c1-c1cccc(F)c1 [Compound A197, 4-(3-fluorophenyl)-1-(5-(isopropylthio)-4-(4-(trifluoromethyl)phenyl)thiazol-2-yl)-3-methyl-1H-pyrazole-5-carboxylic acid]
KHOS/NP, Bone
  AUCs: 3.37
KP4, Pancreas
  AUCs: 2.84
  IC50: 0.52 µM
KU812, Blood
  AUCs: 3.91
KYSE-410, Esophagus
  AUCs: 3.51
L-82, Blood
  AUCs: 2.94
LN-229, Brain&Nerves
  AUCs: 3.59
LNCaP clone FGC, Prostate
  AUCs: 2.48
LS123, Colorectum
  AUCs: 4
LS1034, Colorectum
  AUCs: 3.29
MCF7, Breast
  AUCs: 3.76
MDA-MB-415, Breast
  AUCs: 3.49
MDA-MB-436, Breast
  AUCs: 3.33
MDA-MB-453, Breast
  AUCs: 3.26
ME-180, Uterus
  AUCs: 2.65
MES-SA, Uterus
  AUCs: 2.67
MES-SA/DX5, Uterus
  AUCs: 2.17
MFE-296, Uterus
  AUCs: 3.24
MIA PaCa-2, Pancreas
  AUCs: 3.15
MKN1, Stomach/Gastric
  AUCs: 3.21
MKN45, Stomach/Gastric
  AUCs: 3.54
MKN74, Stomach/Gastric
  AUCs: 2.89
MM.1S, Blood
  AUCs: 3.46
MS751, Uterus/Cervix
  AUCs: 3.52
NCI-H69, Lung
  AUCs: 3.75
NCI-H146, Lung
  AUCs: 3.86
NCI-H187, Lung
  AUCs: 2.89
NCI-H209, Lung
  AUCs: 3.47
NCI-H226, Lung
  AUCs: 2.98
NCI-H292, Lung
  AUCs: 3.17
NCI-H441, Lung
  AUCs: 3.85
NCI-H446, Lung
  AUCs: 3.83
NCI-H460, Lung
  AUCs: 3.13
NCI-H522, Lung
  AUCs: 3.12
NCI-H526, Lung
  AUCs: 3.6
NCI-H596, Lung
  AUCs: 3.81
NCI-H661, Lung
  AUCs: 3.43
NCI-H727, Lung
  AUCs: 3.53
NCI-H747, Large intestine/Colorectum
  AUCs: 3.19
NCI-H929, Blood
  AUCs: 3.32
NCI-H1048, Lung
  AUCs: 3.35
NCI-H1563, Lung
  AUCs: 3.71
NCI-H1581, Lung
  AUCs: 3.1
NCI-H1648, Lung
  AUCs: 3.56
NCI-H1650, Lung
  AUCs: 4.13
NCI-H1666, Lung
  AUCs: 3.51
NCI-H1688, Lung
  AUCs: 3.57
NCI-H1781, Lung
  AUCs: 3.34
NCI-H1838, Lung
  AUCs: 3.62
NCI-H1915, Lung
  AUCs: 3.33
NCI-H1975, Lung
  AUCs: 3.6
NCI-H2009, Lung
  AUCs: 3.22
NCI-H2052, Lung
  AUCs: 3.92
NCI-H2087, Lung
  AUCs: 3.19
NCI-H2452, Lung
  AUCs: 3.72
NCI-N87, Stomach/Gastric
  AUCs: 3.09
NUGC-3, Stomach/Gastric
  AUCs: 3.64
NUGC-4, Stomach/Gastric
  AUCs: 3.11
OCI-AML3, Blood/Leukemia
  AUCs: 3.62
OCUM1, OCUM-1, Stomach/Gastric
  IC50: 68.3 µM
OCUM-1, Stomach/Gastric
  AUCs: 3.57
OCUM-2D, Stomach/Gastric
  AUCs: 3.12
  IC50: 1.14 µM
OCUM-2M, Stomach/Gastric
  AUCs: 2.88
  IC50: 0.848 µM
OE19, Esophagus/gastric cardia
  AUCs: 3.44
OSC19, OSC-19, Tongue
  IC50: 34.5 µM
OSC-19, Tongue
  AUCs: 3.85
OVCAR-3, Ovary
  AUCs: 3.29
OVCAR-8, Ovary
  AUCs: 3.05
PANC-1, Pancreas
  AUCs: 3.13
PC-3, Prostate
  AUCs: 3.82
PL45, PL45, Pancreas
  IC50: 0.993 µM
PL45, Pancreas
  AUCs: 3.37
RL95-2, Uterus
  AUCs: 2.63
RPMI-2650, Nose
  AUCs: 3.04
SCC-4, Tongue
  AUCs: 3.69
SCC-9, Tongue
  AUCs: 3.31
SCC-15, Tongue
  AUCs: 3.56
SCC-25, Tongue
  AUCs: 3.29
SCH, Stomach/Gastric
  AUCs: 3.48
SF268, Brain&Nerves
  AUCs: 3.24
SF-126, Brain&Nerves
  AUCs: 3.39
SK-HEP-1, Liver
  AUCs: 3.05
SK-MEL-5, Skin
  AUCs: 4.12
SK-MEL-28, Skin
  AUCs: 4.18
SK-OV-3, Ovary
  AUCs: 3.53
SK-UT-1, Uterus
  AUCs: 3.67
SNU-1, Stomach/Gastric
  AUCs: 3.25
SNU-5, Stomach/Gastric
  AUCs: 3.11
SNU-81, Colorectum
  AUCs: 3.54
SNU-216, SNU-216, Stomach/Gastric
  IC50: 124 µM
SNU-216, Stomach/Gastric
  AUCs: 3.7
SNU-354, Liver
  AUCs: 3.39
SNU-423, Liver
  AUCs: 3.2
SNU-484, SNU-484, Stomach/Gastric
  IC50: 74.8 µM
SNU-484, Stomach/Gastric
  AUCs: 3.64
SNU-601, SNU-601, Stomach/Gastric
  IC50: 0.331 µM
SNU-601, Stomach/Gastric
  AUCs: 2.89
SNU-620, Stomach/Gastric
  AUCs: 3.75
SNU-638, Stomach/Gastric
  AUCs: 3.32
SNU-668, Stomach/Gastric
  AUCs: 3.48
SNU-719, Stomach/Gastric
  AUCs: 3.58
  IC50: 1320 µM
SNU-C5, Large intestine/Colorectum
  AUCs: 3.5
SW48, Colorectum
  AUCs: 3.74
SW480, Colorectum
  AUCs: 3.62
SW579, SW579, Thyroid
  IC50: 50.5 µM
SW579, Thyroid
  AUCs: 3.73
SW626, Ovary
  AUCs: 3.89
SW684, Soft tissue
  AUCs: 3.77
SW756, Ovary
  AUCs: 3.75
SW948, Colorectum
  AUCs: 3.37
SW982, Soft tissue
  AUCs: 3.99
SW1116, Colorectum
  AUCs: 3.82
SW1271, Lung
  AUCs: 3.9
SW1271, SW1271, Lung
  IC50: 498 µM
SW1990, Pancreas
  AUCs: 3.12
T47D, Breast
  AUCs: 3.33
T84, Colorectum
  AUCs: 3.57
TE-1, Esophagus
  AUCs: 3.23
TF-1, Blood
  AUCs: 3.24
TJ905, Brain&Nerves
  AUCs: 3.68
TT, Thyroid
  AUCs: 3.19
  IC50: 2.17 µM
U266B1, Blood
  AUCs: 3.41
U-2 OS, Bone
  AUCs: 3.44
UACC-812, Breast
  AUCs: 3.52
UO.31, Kidney
  AUCs: 3.58
WM-266-4, Skin
  AUCs: 3.87
Y-79, Eye
  AUCs: 3.72
YCC-1, Stomach/Gastric
  AUCs: 3.54
YCC-2, Stomach/Gastric
  AUCs: 3.66
YCC-6, Stomach/Gastric
  AUCs: 2.95
  IC50: 6.32 µM
YCC-10, Stomach/Gastric
  AUCs: 3.64
  IC50: 412 µM
YCC-11, Stomach/Gastric
  AUCs: 3.34
ZR-75-30, Breast
  AUCs: 3.44
